Test results from article PMC8763243, “Synthesis of Novel Suramin Analogs With Anti-Proliferative Activity via FGF1 and FGFRD2 Blockade” (Frontiers in Chemistry, 2022).
Several values for one entry are separate records, joined by “and”; a condition that tells them apart may be missing. Identical values can stand only once.

Assays:
[1] = Exposure stability study by 1H NMR in DMSO-d6 and D2O; format: physicochemical; conditions: 0.017 mol/L in DMSO-d6 and D2O, 11 days
Procedure: The stability of the compounds was verified in both aqueous and DMSO solutions. In aqueous medium, the stability of the suramin derivatives 15 and 18 were considered to verify the stability. A control experiment consisting of a DMSO-d 6 (0.017 mol/L) solution of 15 and a D2O solution of 15 (0.017 mol/L) was maintained on the laboratory bench. All experiments were performed in NMR tubes containing 0.017 mol/L solutions of compounds 15 and 18 in DMSO-d 6 and D2O, respectively. NMR spectra were recorded over 11 days (initially daily for 1 week).
10 mg of the newly synthesized compound was diluted in 500 µL DMSO-d 6 under investigation in a 5-mm NMR tube. The procedure was maintained as it is for 11 days in the solution. The ^1H NMR spectrum was recorded daily for 4 days up to 11 days.
10 mg of the novel compound was diluted in 500 µL D2O under investigation in a 5-mm NMR tube. The procedure was maintained as it is for 11 days in the solution. The ^1H NMR spectrum was recorded daily for 4 days up to 11 days.

MCF-7 cells = assay: WST-1 assay, cytotoxicity in tumorigenic cells; format: cell-based, human; conditions: for Mean (Blank 450) / Fold (mean) / Blank 450 / Fold: S8; for Fold (mean): relative to control; for Blank 450: single replicate absorbance; for Fold: single replicate relative to control; for cytotoxicity compared with suramin: MCF-7 cells, 1-100 µM, 48 h, especially at concentrations higher than 10 µM
Procedure: (§1) The water-soluble tetrazolium salt (WST-1) assay was performed to assess the effects of the compounds on cell proliferation and cytotoxicity. DMEM/F12 containing 10% FBS was used for the cell culture, and incubation was performed in 5% CO2 till the logarithmic growth phase was achieved. On the day before the experiment, the cells were trypsinized and seeded in a 96-well plate at a density of 5000 cells/well. For the FGF1-stimulated cell proliferation assay, the cells were then incubated for 24 h in a serum-free medium containing 0.1% bovine serum albumin (BSA). Serum-starved cells with or without a specified concentration of suramin, 14, 15, 17, 18, 21, and FGFRD2 were stimulated with 100 nM of FGF1 again for 48 h. For the purpose of the cytotoxicity assay, the cells were treated with an increased concentration of suramin and compounds 14, 17, 15, 18, and 21 (Figure 6) for 48 h. Also, 1/10 of the volume of WST-1 cell reagent was inserted in every well and maintained at 37°C for another 4 h before harvesting. There was gentle agitation of the medium in the cell culture plate for 10 min using a shaker. A Synergy 2 microplate reader (BioTek Instruments, Inc., VT, United States) was used to measure the absorbance at 450 nm. The relative absorbance was compared with the control treatment to determine the relative cell number.
(§2) […] […] The reason for the higher cytotoxicity was the presence of methyl groups on the suramin structure ([Martello et al., 2001]).
(§3) Suramin-induced neuropathy may depend on the effects on calcium (Ca^2+) homeostasis as a potential pathological mechanism, and the full or partial positive charge of the element when directly attached to the ring at each of the sulphonic groups (HSO3). These interactions exert a moderate to strong electron-withdrawing inductive effect, which may be responsible for the observed suramin cytotoxicity ([Prasetyaningrum et al., 2018]; [Von Der Ahe et al., 2018]). The cytotoxicity of the synthesized analogs was lower as there were methyl groups and no sulfonic acid groups attached to the suramin backbone. The IC50 values of the synthesized compounds in MCF-7 breast cancer cells were analyzed using SigmaPlot software.

[2] = WST-1 assay, cytotoxicity in tumorigenic cells; format: cell-based, human; conditions: human; MCF-7 cells, 48 h, SigmaPlot; read-out: estimated IC50 (cytotoxicity)
Procedure: as §1, §2, §3

FGF1 = target: T1, FGF1 (Homo sapiens, UniProt P05230); assay: Fluorescence spectroscopy binding constant of FGF1 and suramin derivatives; conditions: fluorescence quenching, 5 µM FGF1, non-linear regression with Stern–Volmer equation, pH 6.5
T1 construct: made in house
Procedure: The binding constant Kd was calculated for FGF1 and the five derivatives in a buffer containing 10% D2O, 50 mM AMS, 20 mM phosphate buffer, and 50 mM NaCl at pH 6.5 using an F-2500 Hitachi fluorescence spectrophotometer.
[…] has tremendous significance for biochemical application because it provides valuable knowledge about the probability of quencher activity. The anti-mitogenic activity of the five compounds was achieved by the same mechanism in which suramin inhibits the mitogenic activity of FGF1. A non-linear regression curve was plotted for the relative intensities of activity versus drug concentration using the Stern–Volmer equation (Eq. 1). log(F0−F)/F=logK+nlog[Q], (1)
where F0 represents the fluorescence intensity in the absence of the compounds, and F represents the fluorescence intensity in the presence of the [Q] concentration of the compounds.
Increasing concentrations of these five suramin derivatives were added to a solution containing 5 µM FGF1. A reduction in the fluorescence intensity was reported for all five suramin derivatives. The Stern–Volmer equation was used to calculate the binding constant between FGF1 and compounds 14, 15, 17, 18, and 21 for relative intensities versus the total concentration in a non-linear regression curve.

[3] = WST-1 assay, cytotoxicity in normal breast epithelial cell line (non-tumorigenic); format: cell-based; conditions: human; non-tumorigenic MCF-10A cells; read-out: estimated IC50 (cytotoxicity)
Procedure: as §1
In order to gain some insight about the selectivity of the compounds between tumorigenic and non-tumorigenic cells, the cytotoxicity was also being evaluated against normal breast cell lines by examining the cytotoxicity of suramin and its derivatives, compounds 15, 18, and 21, in a normal breast epithelial cell line (non-tumorigenic), MCF-10A. […] Compared to their cytotoxicity in tumorigenic MCF-7 cells (Figure 6), the estimated IC50 values in MCF-10A were higher than those in MCF-7 cells. […] However, the estimated IC50 value of suramin and its derivatives in both non-tumorigenic MCF-10A and tumorigenic MCF-7 cells were over 100 μM. The effective concentrations of suramin and its derivatives to attenuate FGF1-stimulated cell proliferation in MCF-7 cells were around 1 μM (Figure 5), which is non-toxic concentration to both MCF-7 cells and MCF-10A cells. […] Therefore, in addition to the specificity of each drug, the selectivity of suramin and its derivatives to disrupt the FGF1/FGFR-mediated breast cancer growth might rely on the overexpression or amplification of FGFR2 in breast cancer cells, but not in normal cells, and the secreted FGF1 ligand by autocrine or paracrine effects from cancer cells or their surrounding stroma cells or adipocytes (tumor microenvironment). The statistical data for the cytotoxicity are shown in Supplementary Figure S8.

T1 sequence (P05230 whole entry): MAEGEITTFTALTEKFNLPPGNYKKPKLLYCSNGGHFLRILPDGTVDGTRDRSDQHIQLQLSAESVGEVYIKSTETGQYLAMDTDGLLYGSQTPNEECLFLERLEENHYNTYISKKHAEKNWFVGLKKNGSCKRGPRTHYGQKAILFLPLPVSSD

stability in solution (1H NMR) [1] | Structure (SMILES) | Mean (Blank 450) (MCF-7 cells; 1 uM) | Fold (mean) (MCF-7 cells; 1 uM) | Blank 450 (MCF-7 cells; 1 uM) | Fold (MCF-7 cells; 1 uM) | Mean (Blank 450) (MCF-7 cells; 5 uM) | Fold (mean) (MCF-7 cells; 5 uM) | Blank 450 (MCF-7 cells; 5 uM) | Fold (MCF-7 cells; 5 uM) | Mean (Blank 450) (MCF-7 cells; 10 uM) | Fold (mean) (MCF-7 cells; 10 uM) | Blank 450 (MCF-7 cells; 10 uM) | Fold (MCF-7 cells; 10 uM) | Mean (Blank 450) (MCF-7 cells; 50 uM) | Fold (mean) (MCF-7 cells; 50 uM) | Blank 450 (MCF-7 cells; 50 uM) | Fold (MCF-7 cells; 50 uM) | Mean (Blank 450) (MCF-7 cells; 100 uM) | Fold (mean) (MCF-7 cells; 100 uM) | Blank 450 (MCF-7 cells; 100 uM) | other results
remarkably stable | O=C(Nc1ccc(C(=O)Nc2ccc(C(=O)Nc3cc(S(=O)(=O)O)cc4cc(S(=O)(=O)O)cc(S(=O)(=O)O)c34)cc2)cc1)Nc1ccc(C(=O)Nc2ccc(C(=O)Nc3cc(S(=O)(=O)O)cc4cc(S(=O)(=O)O)cc(S(=O)(=O)O)c34)cc2)cc1 [Compound 18, Sodium 8,8'-((4,4'-((4,4'-(carbonylbis (azanediyl))bis (benzoyl))bis (azanediyl))bis (benzoyl))bis(azanediyl)) bis (naphthalene-1,3,6-trisulfonate)] | 1.224 | 1.05 | 1.234 and 1.224 and 1.182 and 1.256 | 1.059 and 1.050 and 1.014 and 1.078 | 1.176 | 1.01 | 1.176 and 1.214 and 1.141 and 1.173 | 1.009 and 1.042 and 0.979 and 1.007 | 1.160 | 1.00 | 1.108 and 1.161 and 1.207 and 1.165 | 0.951 and 0.996 and 1.036 and 1.000 | 1.139 | 0.98 | 1.184 and 1.149 and 1.053 and 1.169 | 1.016 and 0.986 and 0.904 and 1.003 | 1.057 | 0.91 | 1.098 and 1.004 and 1.043 and 1.081 | Fold (MCF-7 cells; 100 uM): 0.942 and 0.862 and 0.895 and 0.928; cytotoxicity compared with suramin (MCF-7 cells): less toxic; IC50 at 48 h [2]: > 100 µM; Kd (FGF1): 15.5 µM; IC50 at 48 h [3]: 653.4 ± 2.31 µM
remarkably stable | O=C(Nc1ccc(C(=O)Nc2cc(S(=O)(=O)[O-])cc3cc(S(=O)(=O)[O-])cc(S(=O)(=O)[O-])c23)cc1)Nc1ccc(C(=O)Nc2cc(S(=O)(=O)[O-])cc3cc(S(=O)(=O)[O-])cc(S(=O)(=O)[O-])c23)cc1.[Na+].[Na+].[Na+].[Na+].[Na+].[Na+] [Compound 15, Sodium 8,8'-((4,4'-(carbonylbis (azanediyl))bis (benzoyl))bis (azanediyl))bis (naphthalene-1,3,6-trisulfonate)] | 1.163 | 1.00 | 1.143 and 1.162 and 1.195 and 1.152 | 0.981 and 0.997 and 1.026 and 0.989 | 1.146 | 0.98 | 1.161 and 1.116 and 1.206 and 1.101 | 0.996 and 0.958 and 1.035 and 0.945 | 1.122 | 0.96 | 1.151 and 1.117 and 1.059 and 1.162 | 0.988 and 0.959 and 0.909 and 0.997 | 0.982 | 0.84 | 0.998 and 1.012 and 0.955 and 0.961 | 0.856 and 0.868 and 0.820 and 0.825 | 0.880 | 0.75 | 0.927 and 0.887 and 0.833 and 0.872 | Fold (MCF-7 cells; 100 uM): 0.796 and 0.761 and 0.715 and 0.748; cytotoxicity compared with suramin (MCF-7 cells): less toxic; IC50 at 48 h [2]: > 100 µM; Kd (FGF1): 20.9 µM; IC50 at 48 h [3]: 221 ± 3.57 µM
